molecular target: T1, human FXR (Homo sapiens, UniProt Q96RI1); assay: transient human FXR/Gal4-luciferase reporter assay; type: cell-based; conditions: Gal4-hFXR reporter in HEK293 cells; read-out: HLE GAL-FXR EC50
T1 construct: expressed in transfected cells; host or cells: HEK293 cells stably carrying a 5xGal4-response-element firefly luciferase reporter, transiently transfected with the pcDNA3.1-Gal4-FXR plasmid
T1 sequence (Q96RI1 262-486 limits assumed): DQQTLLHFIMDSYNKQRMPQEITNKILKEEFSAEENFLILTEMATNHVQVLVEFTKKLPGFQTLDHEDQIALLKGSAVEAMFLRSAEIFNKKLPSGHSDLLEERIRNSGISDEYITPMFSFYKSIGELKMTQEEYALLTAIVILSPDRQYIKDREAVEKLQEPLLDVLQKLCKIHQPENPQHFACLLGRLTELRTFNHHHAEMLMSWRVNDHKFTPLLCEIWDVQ
Description: The exemplified compounds of the present invention were tested in the transient human FXR/Gal4-luciferase reporter assay, and assay results were reported in Table 1 together with other analytical data.
A Gal4-hFXR fusion construct reporter system was used as the primary assay to characterize compound activity. A construct including 5 copies of the Gal4 promoter response element upstream of a firefly luciferase reporter cDNA was stably expressed in HEK293 cells. This reporter cell line was maintained in Dulbecco's Modified Eagle's medium (DMEM; Gibco) supplemented with 1% penicillin-streptomycin (P/S) solution, 500 μg/mL Zeocin and 10% charcoal/dextran-treated fetal bovine serum (cs-FBS) at 37° C. in a humidified 5% CO2 atmosphere. Another plasmid was constructed in which the human cytomegalovirus promoter in the pcDNA3.1 vector directs the expression of the cDNA encoding a fusion protein comprised of the DNA binding domain from the Gal4 transcription factor fused to the ligand binding domain from human FXR.
The day prior to transfection, the reporter cells in culture are detached from the plate with trypsin and plated into a T75 flask at a sufficient density to achieve approximately 90% confluence the next morning. The transfection reagents are prepared by separately diluting 25 μg of the pcDNA3.1-Gal4-FXR plasmid into 1.87 mL of Opti-MEM (Thermo-Fisher), and 40 μL of Lipofectamine 2000 (Thermo-Fisher) into 1.87 mL of Opti-MEM, and then adding the diluted DNA solution into the diluted Lipofectamine 2000 solution and incubating at room temperature for 15-20 minutes. The mixture is further diluted with 10 mL of a solution comprised of DMEM, 10% cs-FBS, and 1% P/S immediately prior to transferring to the cells. The maintenance culture media is aspirated from the cells and the final transfection mixture is added before the cells are incubated overnight at 37° C. in a humidified 5% CO2 atmosphere. This protocol can be scaled up, and the transiently transfected cells can be cryopreserved in an assay-ready format.
For compound testing, 100 nL of the compounds (serial dilutions in DMSO) are dispensed with an Echo acoustic dispenser (Labcyte) into the wells of a Corning/Costar clear bottom 384-well white plate. The transfected cells are harvested, counted, and diluted such that 10-25,000 cells in 25 μL are plated into each well of the 384-well compound assay plate. The compound-treated cells are incubated overnight at 37° C. in a humidified 5% CO2 atmosphere. The next morning 25 μL of Steady-Glo (Promega) are added to each well of the plate, the mixture is incubated for 15 min. with shaking, and luminescence is measured on an Envision (Perkin Elmer) plate reader. Background counts from cells treated with DMSO alone are subtracted from all raw counts, and the corrected values are converted to a percentage of the control response attained with 8 μM GW-4064.

EC50	Structure (SMILES)
959 nM	O=C(O)c1cccc(CN2CCC3(CC2)CC(=Cc2c(-c4c(Cl)cccc4Cl)noc2C2CC2)C3)c1 [Example 9, 3-((2-((5-Cyclopropyl-3-(2,6-dichlorophenyl)isoxazol-4-yl)methylene)-7-azaspiro[3.5]nonan-7-yl)methyl)benzoic acid]

same assay, conditions: Gal4-hFXR reporter in HEK293 cells; relative to 8 μM GW-4064; read-out: FXR EC50

Structure (SMILES)	EC50
Cc1cccc(Cl)c1-c1noc(C2CC2)c1C=C1CC2(CCN(c3nc4c(F)cc(C(=O)O)cc4s3)CC2)C1 [Example 60]	144 nM
Cc1cc2cc(N3CCC4(CC3)CC(=Cc3c(-c5c(Cl)cccc5Cl)noc3C3CC3)C4)ccc2nc1C(=O)O [Example 43]	1350 nM
O=C(O)c1cc(C(F)(F)F)c2cc(N3CCC4(CC3)CC(Cc3c(-c5c(Cl)cccc5Cl)noc3C3CC3)C4)ccc2n1 [Example 41]	13 nM
O=C(O)c1nc(C(F)(F)F)n2cc(N3CCC4(CC3)CC(=Cc3c(-c5ccccc5C(F)(F)F)noc3C3CC3)C4)ccc12 [Example 33]	6 nM
Cc1cc(C(=O)O)cc2sc(N3CCC4(CC3)CC(=Cc3c(C5CC5)nnn3-c3c(Cl)cccc3Cl)C4)nc12 [Example 20]	252 nM
O=C(O)C1(c2ccc(N3CCC4(CC3)CC(=Cc3c(-c5c(Cl)cccc5Cl)noc3C3CC3)C4)cc2)CC1 [Example 46]	391 nM
O=C(O)c1cccc(N2CCC3(CC2)CC(Nc2c(-c4c(Cl)cccc4Cl)noc2C2CC2)C3)n1 [Example 14]	1570 nM
Cn1nnc(-c2ccc(N3CCC4(CC3)CC(=Cc3c(-c5c(Cl)cccc5Cl)noc3C3CC3)C4)cc2)n1 [Example 53]	908 nM
O=C(O)c1cc(F)c2nc(N3CCC4(CC3)CC(=Cc3c(-c5ccccc5C(F)(F)F)noc3C3CC3)C4)sc2c1 [Example 31]	173 nM
Cc1cccc(Cl)c1-c1noc(C2CC2)c1C=C1CC2(CCN(c3ccc4cc(C(=O)O)ccc4c3)CC2)C1 [Example 55]	125 nM
O=C(O)c1ccc2cc(N3CCC4(CC3)CC(Cc3c(-c5ccccc5C(F)(F)F)noc3C3CC3)C4)ccc2n1 [Example 32]	243 nM
Cn1cc(C(=O)O)c2ccc(N3CCC4(CC3)CC(=Cc3c(-c5ccccc5OC(F)(F)F)noc3C3CC3)C4)nc21 [Example 28]	229 nM

Further lines, results first:

EC50	Structure (SMILES)
54 nM	Cn1cc(-c2nn[nH]n2)c2ccc(N3CCC4(CC3)CC(=Cc3c(-c5ccccc5C(F)(F)F)noc3C3CC3)C4)cc21 [Example 62]
16 nM	Cc1cc(C(=O)O)nc2ccc(N3CCC4(CC3)CC(Cc3c(-c5ccccc5C(F)(F)F)noc3C3CC3)C4)cc12 [Example 78]
4 nM	O=C(O)c1cc(OCC(F)F)c2cc(N3CCC4(CC3)CC(=Cc3c(-c5ccccc5C(F)(F)F)noc3C3CC3)C4)ccc2n1 [Example 148]
69 nM	O=C(O)c1cc(F)c2nc(N3CCC4(CC3)CC(=Cc3c(-c5c(Cl)cncc5Cl)noc3C3CC3)C4)sc2c1 [Example 88]
793 nM	CCc1cc(N2CCC3(CC2)CC(Cc2c(-c4c(Cl)cccc4Cl)noc2C2CC2)C3)ccc1OCC(=O)O [Example 96]
33 nM	O=C(O)c1cc(OC2CCC2)c2cc(N3CCC4(CC3)CC(Cc3c(-c5ccccc5C(F)(F)F)noc3C3CC3)C4)ccc2n1 [Example 109]
428 nM	O=C(c1cc(OC2CCC2)c2cc(N3CCC4(CC3)CC(Cc3c(-c5ccccc5C(F)(F)F)noc3C3CC3)C4)ccc2n1)N1CCC1 [Example 187]
160 nM	CC(O)Cc1cc(C(=O)O)nc2ccc(N3CCC4(CC3)CC(Cc3c(-c5ccccc5C(F)(F)F)noc3C3CC3)C4)cc12 (stereo not shown) [Example 147]
1270 nM	O=C(O)c1cc(C(F)(F)F)cc(N2CCC3(CC2)CC(Cc2c(-c4ccccc4C(F)(F)F)noc2C2CC2)C3)n1 [Example 163]
34 nM	O=C(c1cc(OC2CCC2)c2cc(N3CCC4(CC3)CC(Cc3c(-c5ccccc5C(F)(F)F)noc3C3CC3)C4)ccc2n1)N1CCCCC1 [Example 189]
17 nM	COc1cc(C(=O)O)nc2ccc(N3CCC4(CC3)CC(Cc3c(-c5ccccc5C(F)(F)F)noc3C3CC3)C4)cc12 [Example 69]
3 nM	O=C(O)c1cc(OC2CCCC2)c2cc(N3CCC4(CC3)CC(=Cc3c(-c5ccccc5C(F)(F)F)noc3C3CC3)C4)ccc2n1 [Example 120]

From patent US11370785B2, “Multicyclic compounds as farnesoid X receptor modulators” (BRISTOL-MYERS SQUIBB COMPANY, priority 2017, dated 2022)
